Laboratory results: patent US8192962B2, “Processes for detecting toxic substances” (Daikin Industries, Ltd., priority 2001, dated 2012)

Tested on: Unknown protein yeast genes
Assay: DNA chip mRNA expression in yeast, unknown protein yeast genes (Table 1)
Format: cell-based, Saccharomyces cerevisiae S288C
Procedure: Yeast (Saccharomyces cerevisiae S288C (α SUC2mal mel gap2 CUP1)) were incubated at 25° C. on YPD medium (yeast extract 1%, polypepton 2%, glucose 2%). One of toxic chemical substances was added to the cells at logarithmic growth phase, and the cells were further incubated for two hours. Cells were cultured without any chemical substance in the same condition, and were used as control. Concentrations of the chemical substances were defined to inhibit the growth of the yeast but not lead to death.
After completion of the incubation, the culture was centrifuged to collect the cells. To the cells, sodium acetate buffer (50 mM sodium acetate, 10 mM EDTA, 1% SDS) was added, and the mixture was shaken at 65° C. for five minutes, followed by returning to room temperature, and obtaining the supernatant, of which the procedures were repeated two times. To the supernatant, ½ amount of a solution of phenol/chloroform was added, and the mixture was centrifuged to give a supernatant, which was added with an equal amount of chloroform, and the mixture was centrifuged to give a supernatant. To the supernatant, an equal amount of isopropanol containing 0.3 M sodium acetate was added, and the mixture was allowed to stand at room temperature for 30 minutes, after which the mixture was centrifuged to give a sediment of the whole RNAs. Seventy % ethanol was added to the sediment, and the mixture was again centrifuged to give a sediment, which was then dried and dissolved in water. mRNA was isolated from the whole RNAs as followings. In view of the fact that a poly A chain is attached to the 3′ terminus of mRNA, a polynucleotide having a poly T structure which was immobilized on the surface of latex beads was used to trap the mRNA, and then the mRNA was washed and eluted with spine column (Oligotex-dT30<Super>mRNA Purification Kit, Takara). Reverse transcription of the mRNA was conducted with a reverse transcriptase (Super Script II Reverse Transcriptase; catalogue No. 18064-014, GibcoBRL) using fluorescence-labeled nucleotides to give cDNAs that were introduced with Cy3-dUTP or Cy5-dUTP during the reverse transcription.
The labeled cDNAs were dissolved in TE buffer (10mM Tris-HCl/1 mM EDTA, pH8.0), and the solution was dropped on the DNA chip containing the whole genes of yeast (DNA Chip Research Inc. Japan) so that the cDNAs were hybridized on the DNA chip at 65° C. for over 12 hours. The fluoresces intensity of the DNA chip was read with a scanner, and the ratio relative to the fluorescence intensity resulting from the absence of chemical substance was estimated as the following, which is shown in Tables 1 to 9: […]

## [Cl][Pb][Cl] [(4), PbCl2]
Yeast gene YAL053W, incubated two hours with chemical substance
  The level of expressed mRNA in the presence of chemical substance/The level of expressed mRNA in the absence of chemical substance: 2.1
Yeast gene YBL048W
  The level of expressed mRNA in the presence of chemical substance/The level of expressed mRNA in the absence of chemical substance: 2.8
Yeast gene YBL107C
  The level of expressed mRNA in the presence of chemical substance/The level of expressed mRNA in the absence of chemical substance: 1.5
Yeast gene YDL072C, incubated two hours with chemical substance
  The level of expressed mRNA in the presence of chemical substance/The level of expressed mRNA in the absence of chemical substance: 2.1
Yeast gene YDL204W, incubated two hours with chemical substance
  The level of expressed mRNA in the presence of chemical substance/The level of expressed mRNA in the absence of chemical substance: 3.4
Yeast gene YDL222C, incubated two hours with chemical substance
  The level of expressed mRNA in the presence of chemical substance/The level of expressed mRNA in the absence of chemical substance: 3.9
Yeast gene YDR330W, incubated two hours with chemical substance
  The level of expressed mRNA in the presence of chemical substance/The level of expressed mRNA in the absence of chemical substance: 0.8
Yeast gene YDR411C, incubated two hours with chemical substance
  The level of expressed mRNA in the presence of chemical substance/The level of expressed mRNA in the absence of chemical substance: 1.2
Yeast gene YDR511W, incubated two hours with chemical substance
  The level of expressed mRNA in the presence of chemical substance/The level of expressed mRNA in the absence of chemical substance: 2.3
Yeast gene YDR545W, incubated two hours with chemical substance
  The level of expressed mRNA in the presence of chemical substance/The level of expressed mRNA in the absence of chemical substance: 0.7
Yeast gene YEL001C, incubated two hours with chemical substance
  The level of expressed mRNA in the presence of chemical substance/The level of expressed mRNA in the absence of chemical substance: 0.7
Yeast gene YER004W, incubated two hours with chemical substance
  The level of expressed mRNA in the presence of chemical substance/The level of expressed mRNA in the absence of chemical substance: 1.4
Yeast gene YER035W, incubated two hours with chemical substance
  The level of expressed mRNA in the presence of chemical substance/The level of expressed mRNA in the absence of chemical substance: 1.9
Yeast gene YER079W, incubated two hours with chemical substance
  The level of expressed mRNA in the presence of chemical substance/The level of expressed mRNA in the absence of chemical substance: 2.0
Yeast gene YER106W, incubated two hours with chemical substance
  The level of expressed mRNA in the presence of chemical substance/The level of expressed mRNA in the absence of chemical substance: 1.2
Yeast gene YER158C, incubated two hours with chemical substance
  The level of expressed mRNA in the presence of chemical substance/The level of expressed mRNA in the absence of chemical substance: 3.1
Yeast gene YER163C, incubated two hours with chemical substance
  The level of expressed mRNA in the presence of chemical substance/The level of expressed mRNA in the absence of chemical substance: 1.6
Yeast gene YER175C, incubated two hours with chemical substance
  The level of expressed mRNA in the presence of chemical substance/The level of expressed mRNA in the absence of chemical substance: 2.2
Yeast gene YFL006W, incubated two hours with chemical substance
  The level of expressed mRNA in the presence of chemical substance/The level of expressed mRNA in the absence of chemical substance: 1.0
Yeast gene YFL010C, incubated two hours with chemical substance
  The level of expressed mRNA in the presence of chemical substance/The level of expressed mRNA in the absence of chemical substance: 1.0
Yeast gene YFL024C
  The level of expressed mRNA in the presence of chemical substance/The level of expressed mRNA in the absence of chemical substance: 0.7
Yeast gene YFL032W, incubated two hours with chemical substance
  The level of expressed mRNA in the presence of chemical substance/The level of expressed mRNA in the absence of chemical substance: 0.8
Yeast gene YGL037C, incubated two hours with chemical substance
  The level of expressed mRNA in the presence of chemical substance/The level of expressed mRNA in the absence of chemical substance: 2.1
Yeast gene YGL047W, incubated two hours with chemical substance
  The level of expressed mRNA in the presence of chemical substance/The level of expressed mRNA in the absence of chemical substance: 2.3
Yeast gene YGL053W, incubated two hours with chemical substance
  The level of expressed mRNA in the presence of chemical substance/The level of expressed mRNA in the absence of chemical substance: 2.5
Yeast gene YGL121C
  The level of expressed mRNA in the presence of chemical substance/The level of expressed mRNA in the absence of chemical substance: 4.2
Yeast gene YGL199C, incubated two hours with chemical substance
  The level of expressed mRNA in the presence of chemical substance/The level of expressed mRNA in the absence of chemical substance: 1.0
Yeast gene YGR101W, incubated two hours with chemical substance
  The level of expressed mRNA in the presence of chemical substance/The level of expressed mRNA in the absence of chemical substance: 1.1
Yeast gene YGR110W
  The level of expressed mRNA in the presence of chemical substance/The level of expressed mRNA in the absence of chemical substance: 5.9
Yeast gene YGR130C, incubated two hours with chemical substance
  The level of expressed mRNA in the presence of chemical substance/The level of expressed mRNA in the absence of chemical substance: 1.6
Yeast gene YGR154C, incubated two hours with chemical substance
  The level of expressed mRNA in the presence of chemical substance/The level of expressed mRNA in the absence of chemical substance: 0.5
Yeast gene YGR221C, incubated two hours with chemical substance
  The level of expressed mRNA in the presence of chemical substance/The level of expressed mRNA in the absence of chemical substance: 1.4
Yeast gene YHR138C, incubated two hours with chemical substance
  The level of expressed mRNA in the presence of chemical substance/The level of expressed mRNA in the absence of chemical substance: 2.8
Yeast gene YHR199C, incubated two hours with chemical substance
  The level of expressed mRNA in the presence of chemical substance/The level of expressed mRNA in the absence of chemical substance: 2.0
Yeast gene YIL023C, incubated two hours with chemical substance
  The level of expressed mRNA in the presence of chemical substance/The level of expressed mRNA in the absence of chemical substance: 1.8
Yeast gene YIL041W, incubated two hours with chemical substance
  The level of expressed mRNA in the presence of chemical substance/The level of expressed mRNA in the absence of chemical substance: 1.3
Yeast gene YIL087C, incubated two hours with chemical substance
  The level of expressed mRNA in the presence of chemical substance/The level of expressed mRNA in the absence of chemical substance: 1.6
Yeast gene YJL057C, incubated two hours with chemical substance
  The level of expressed mRNA in the presence of chemical substance/The level of expressed mRNA in the absence of chemical substance: 1.7
Yeast gene YJL066C, incubated two hours with chemical substance
  The level of expressed mRNA in the presence of chemical substance/The level of expressed mRNA in the absence of chemical substance: 2.5
Yeast gene YJL082W, incubated two hours with chemical substance
  The level of expressed mRNA in the presence of chemical substance/The level of expressed mRNA in the absence of chemical substance: 1.1
Yeast gene YJL151C, incubated two hours with chemical substance
  The level of expressed mRNA in the presence of chemical substance/The level of expressed mRNA in the absence of chemical substance: 1.2
Yeast gene YJL152W, incubated two hours with chemical substance
  The level of expressed mRNA in the presence of chemical substance/The level of expressed mRNA in the absence of chemical substance: 1.3
Yeast gene YJL161W, incubated two hours with chemical substance
  The level of expressed mRNA in the presence of chemical substance/The level of expressed mRNA in the absence of chemical substance: 4.6
Yeast gene YJL171C, incubated two hours with chemical substance
  The level of expressed mRNA in the presence of chemical substance/The level of expressed mRNA in the absence of chemical substance: 1.4
Yeast gene YJR008W, incubated two hours with chemical substance
  The level of expressed mRNA in the presence of chemical substance/The level of expressed mRNA in the absence of chemical substance: 1.7
Yeast gene YJR054W, incubated two hours with chemical substance
  The level of expressed mRNA in the presence of chemical substance/The level of expressed mRNA in the absence of chemical substance: 0.9
Yeast gene YKL071W
  The level of expressed mRNA in the presence of chemical substance/The level of expressed mRNA in the absence of chemical substance: 2.8
Yeast gene YKL086W, incubated two hours with chemical substance
  The level of expressed mRNA in the presence of chemical substance/The level of expressed mRNA in the absence of chemical substance: 2.6
Yeast gene YKL151C, incubated two hours with chemical substance
  The level of expressed mRNA in the presence of chemical substance/The level of expressed mRNA in the absence of chemical substance: 2.5
Yeast gene YKL153W, incubated two hours with chemical substance
  The level of expressed mRNA in the presence of chemical substance/The level of expressed mRNA in the absence of chemical substance: 0.7
